Results as given in patent US12370158B2, “Analogs of CYP-eicosanoids for use in treating or preventing a disorder associated with neovascularization and/or inflammation” (OMEICOS Therapeutics GmbH, priority 2016, dated 2025).

Legend:
[1] = test system: double transgenic rats (dTGR), renal tissue; assay: Renal inflammation (ED1 macrophage infiltration) in dTGR rat model of severe hypertension and end-organ damage; format: in vivo; settings: 1.33 mg/kg twice daily by gavage for 21 days, compared to vehicle treated dTGRs
From the text: (§1) The aim of this study was to assess and compare the effect of continuous oral treatment of a metabolically robust analog of 17,18-EEQ (Comp-02) or vehicle (isotonic salt solution) on physiological parameters, clinical chemistry and end-organ damage in male double transgenic rats (dTGR). Non-treated Sprague-Dawley rats (SD) of same genetic background were used as control. Double transgenic rats, overexpressing the human renin and angiotensinogen genes, develop severe hypertension and are a model for Ang-II induced end-organ damage with cardiac hypertrophy and kidney failure. Moreover, the dTGR model features severe […], cardiac hypertrophy and nephrosclerosis with marked fibrosis and inflammation.
(§2) Before start of the experiment the animals were randomly assigned to either compound or vehicle treatment. […] Comp-02 was prepared in 61.6 ppm Na2CO3 and 0.9% NaCl ready to use solution for application, while dTGR animals were dosed twice daily with 0.9% NaCl ready to use solution for vehicle control. […] Samples were analysed using a Zeiss Axioplan-2 imaging microscope with the digital image-processing program AxioVision 4.8. […] Data were expressed as sum of 20 randomly chosen view fields, non-overlapping fields per section. […]

HL-1 cells = assay: Viability of LPS-challenged HL-1 cardiomyocytes; format: cell-based, mouse; settings: 10 nM, 100 nM or 1 μM, 1 μg/mL LPS, 24 h
Experimental: A cardiomyocyte cell line was used (mouse derived immortalized cardiomyocytes, HL-1 cells). Cells were either treated with vehicle (0.01% ethanol) or different concentrations of test compound (Comp-02: cE=10 nM, 100 nM or 1 μM). Simultaneously, the cells were challenged with 1 μg/mL lipopolysaccharide (LPS). After 24 h of incubation, the cells were processed to measure viability.
(§3) In order to investigate the anti-inflammatory potential of compounds being part of the invention in vitro, a cardiomyocyte cell line was used (mouse derived immortalized cardiomyocytes, HL-1 cells). Cells were either treated with vehicle (0.01% ethanol) or different concentrations of test compound (Comp-02: cE=10 nM, 100 nM or 1 μM). Simultaneously, the cells were challenged with 1 μg/mL lipopolysaccharide (LPS). After 24 h of incubation, the cells were processed to measure viability (FIG. 2) and release of the pro-inflammatory cytokine TNF alpha (FIG. 3).

[2] = Ocular pharmacokinetics of Comp-02 after intravitreal injection in rabbit; format: in vivo, pigmented HY79b rabbits; settings: ocular examination with a slit lamp
[3] = Ocular pharmacokinetics of Comp-02 after oral administration in rabbit; format: in vivo, pigmented HY79b rabbits; settings: for Comp-02 content (below lower limit of detection): oral; for Cmax / Tmax / AUC / half-life: male, pigmented HY79b, rabbit; for Cmax: single oral 2 mg/kg (0.2 mg/mL); for Tmax / AUC / half-life: single oral 2 mg/kg; for AUC: read-out: AUC1-48 hours; for half-life: calculated from the Tmax value
Experimental: (§4) Study design: To gain insight into the distribution behaviour of synthetic 17,18-EEQ-agonists, ocular pharmacokinetic studies were performed in pigmented HY79b rabbits. Briefly, 15 male rabbits per administration route were anesthetized at the time-points for sampling indicated in tables 2-4 by an intramuscular injection of a mixed solution of xylazine and ketamine. Blood collection was performed by cardiac puncture in K3EDTA tubes and centrifuged at 2000 g, 10 min at 4° C. Approximately 3 mL of plasma were sampled, put in plastic tubes, snap frozen in liquid nitrogen and stored at −80° C. until assay. Then animals were euthanized by intracardiac injection of overdosed pentobarbital. This method is one of the recommended methods for euthanasia by the European authorities (French decree No. 2013-118, dated Feb. 1, 2013 publishing the European directive 2010/63/UE. J.Offic. Rp. Fr. 2013; Text 24 out of 130). Immediately after euthanasia, samples from both eyes were quickly and carefully taken, put in plastic tubes, weighed, snap frozen in liquid nitrogen and stored at −80° C. until assay. Content of Comp-02 was determined in ocular samples and plasma following an established RRLCMS/MS method. The results are presented in Tables 5-7 and are expressed as mean values for the different pharmacokinetic parameters. Chromatogram integration was done using MassHunter software. Apparent Cmax and Tmax, T½, AUC1-48 h were calculated by Excel® software. Concentrations were expressed in ng/g or ng/mL of tissue/eye compartment.

[4] = Ocular pharmacokinetics of Comp-02 after topical administration (instillation) in rabbit; format: in vivo, pigmented HY79b rabbits; settings: male, pigmented HY79b, topical or ocular, 50 μl of 1 mg/mL in both eyes; for Cmax: single instillation 50 μl (1 mg/mL) in both eyes; for Tmax / half-life / AUC: topical; for half-life: calculated from the Tmax value; for AUC: read-out: AUC1-48 hours
Experimental: as §4

[5] = test system: double transgenic rats (dTGR), cardiac tissue; assay: Cardiac inflammation (ED1 macrophage infiltration) in dTGR rat model of severe hypertension and end-organ damage; format: in vivo; settings: 1.33 mg/kg twice daily by gavage for 21 days, compared to vehicle treated dTGRs
From the text: as §1, §2

[6] = Ocular pharmacokinetics of Comp-02 after intravitreal injection in rabbit; format: in vivo, pigmented HY79b rabbits; settings: for AUC / Tmax / half-life / Cmax: male, pigmented HY79b; for AUC / Tmax / half-life: intravitreal; for AUC: read-out: AUC1-48 hours; for half-life: calculated from the Tmax value; for Cmax: topical or ocular, single vitreal injection of 50 μl (1 mg/mL) in both eyes
Experimental: as §4

[7] = test system: TNF alpha release from the HL-1 cells; assay: TNF alpha release from HL-1 cardiomyocytes; format: cell-based, mouse; settings: 24 h
Experimental: A cardiomyocyte cell line was used (mouse derived immortalized cardiomyocytes, HL-1 cells). Cells were either treated with vehicle (0.01% ethanol) or different concentrations of test compound (Comp-02: cE=10 nM, 100 nM or 1 μM). Simultaneously, the cells were challenged with 1 μg/mL lipopolysaccharide (LPS). After 24 h of incubation, the cells were processed to measure release of the pro-inflammatory cytokine TNF alpha.
as §3

[8] = Ocular pharmacokinetics of Comp-02 after topical administration (instillation) in rabbit; format: in vivo, pigmented HY79b rabbits; settings: checked by ophthalmoscopy
[9] = other: intravitreal injection, 50 μl of 1 mg/mL in both eyes, vitreous
[10] = other: intravitreal, 50 µg/eye, choroid
[11] = other: intravitreal, 50 µg/eye, plasma
[12] = other: intravitreal, 50 µg/eye, retina

With `CNC(=O)C(=O)NCCCC/C=C\CCCCCCCOCC(=O)O` [Comp-02, 2-((13-(2-(methylamino)-2-oxoacetamido)tridec-8(Z)-en-1-yl)oxy)acetic acid] the “Macrophage infiltration (ED1 positive cells) in renal tissue” value [1] was “significant reduction”, the “Effect on LPS-induced reduction in cell viability (cytotoxic effect)” value (HL-1 cells) was “dose-dependently reversed” and the “Macroscopic tolerability of the Comp-02 formulation” value [2] was “very well tolerated”. The “Comp-02 content (below lower limit of detection)” value ([3]; aqueous humor samples, except for one out of 15 animals) was under 0.1 ng/10 μl injected, the Cmax ([3]; aqueous humor) was 8 ng/mL and the Tmax ([3]; aqueous humor) was 1 h. The AUC ([3]; aqueous humor) was 12 ng·h/mL, the Cmax ([3]; choroid) was 246 ng/g and the Tmax ([3]; choroid) was 1 h. For the same compound, the half-life ([3]; choroid) was 9 h, the AUC ([3]; choroid) was 1390 ng·h/mL and the Cmax ([3]; plasma) was 1210 ng/mL. For the same compound, the Tmax ([3]; plasma) was 1 h, the half-life ([3]; plasma) was 6 h and the AUC ([3]; plasma) was 6330 ng·h/mL. For the same compound, the Cmax ([3]; retina) was 15 ng/g, the Tmax ([3]; retina) was 4 h and the “Comp-02 content (below lower limit of detection)” value ([3]; retina samples, except for two out of 15 animals) was under 0.1 ng/10 μl injected. It also gave a Cmax ([4]; aqueous humor) of 88 ng/mL, a Tmax ([4]; aqueous humor) of 1 h and a half-life ([4]; aqueous humor) of 1 h. It also gave an AUC ([4]; aqueous humor) of 324 ng·h/mL, a Cmax ([4]; choroid) of 79 ng/g and a Tmax ([4]; choroid) of 1 h. It also gave a half-life ([4]; choroid) of 0.7 h, a Cmax ([4]; plasma) of 31 ng/mL and a Tmax ([4]; plasma) of 0.5 h. For the same compound, the half-life ([4]; plasma) was 5.4 h, the AUC ([4]; plasma) was 262 ng·h/mL and the Cmax ([4]; retina) was 24 ng/g. The Tmax ([4]; retina) was 1 h, the “Macrophage infiltration (ED1 positive cells) in cardiac tissue” value [5] was “significant reduction” and the “Ocular exposure in the posterior eye, comparison of routes” value ([6]; intravitreal injection compared to oral and topical administration) was “highest ocular exposures”. The AUC ([6]; other: intravitreal injection, 50 μl of 1 mg/mL in both eyes, choroid) was 63300 ng·h/mL, the AUC ([6]; other: intravitreal injection, 50 μl of 1 mg/mL in both eyes, plasma) was 287 ng·h/mL and the AUC ([6]; other: intravitreal injection, 50 μl of 1 mg/mL in both eyes, retina) was 79900 ng·h/mL. The Tmax [6, 9] was 1 h, the AUC [6, 9] was 55400 ng·h/mL and the Tmax [6, 10] was 1 h. For the same compound, the half-life [6, 10] was 2.4 h, the Tmax [6, 11] was 2 h and the half-life [6, 11] was 4.2 h. For the same compound, the Tmax [6, 12] was 1 h, the half-life [6, 12] was 2.6 h and the half-life ([6]; other: intravitreal, 50 µg/eye, vitreous) was 4.6 h. The Cmax ([6]; 50 μl of 1 mg/mL in both eyes, choroid) was 15000 ng/g, the Cmax ([6]; 50 μl of 1 mg/mL in both eyes, plasma) was 19 ng/mL and the Cmax ([6]; 50 μl of 1 mg/mL in both eyes, retina) was 10100 ng/g. For the same compound, the Cmax ([6]; 50 μl of 1 mg/mL in both eyes, vitreous) was 6650 ng/mL, the “LPS-induced TNF alpha release” value ([7]; 10 nM, 100 nM or 1 μM, 1 μg/mL LPS) was “significantly and dose-dependently reduced” and the “Influence on TNF alpha production, compound alone” value ([7]; Comp-02 alone (no LPS)) was “did not have an influence”. The “Macroscopic tolerability of the Comp-02 formulation” value [8] was “very well tolerated”.
